# Data reported in patent publication US11371097B2, “Articles for diagnosis of liver fibrosis” (THE GOVERNMENT OF THE UNITED STATES, as represented by THE …, priority 2015, dated 2022).
# Entries after “also recorded” stand apart in the source; their conditions may differ.
# Tests used:
# Tgfb1 = assay: qPCR of liver RNA: Tgfb1; type: in vivo, Male Sprague-Dawley rats
# Description: (§1) Working on dry ice, a portion (−10 mg) of flash-frozen liver was cut from each sample and transferred to a clean, labeled tube. Total RNA was then isolated using Qiagen's miRNeasy 96 kit (Qiagen, Valencia, Calif.) following manufacturer's instructions with a final elution volume of −150 μL (2×75 μL). The quality and quantity of RNA samples were evaluated with a 2100 Bioanalyzer (Agilent Technologies, Santa Clara, Calif.), using the Agilent RNA 6000 Nano Reagents and a multiwell NanoDrop 8000 spectrophotometer (Thermo Fisher Scientific, Waltham, Mass.).
# (§2) Using 1 μg RNA input, cDNA was generated using a QuantiTect Reverse Transcription kit (Qiagen, Valencia, Calif.) following manufacturer's instructions. Applied Biosystems SYBR Green Master Mix was used in a 20 μL qPCR reaction with 2 μL of cDNA template and a 2.tM final concentration of each primer. A total of five genes were targeted (Gapdh, Actb, Timp1, Tgfbl, and Psma5), two of which served as the endogenous controls (Gapdh and Actb). An Applied Biosystems 7500 Real-Time PCR System (Applied Biosystems, Foster City, Calif.) was used for thermal cycling and fluorescence detection using the default settings for Quantitation-Comparative CT with SYBR® . . . Green Reagents which uses the following scheme: 95° C. for 10 minutes followed by 40 cycles of: 95° C. for 15 seconds, 60° C. for 1 minute, and a fluorescence signal read. Al! primers were obtained from Integrated DNA Technology's PrimeTime qPCR primer library (Integrated DNA Technologies, Coralville, Iowa).
# Data was imported into GraphPad Prism (GraphPad Software, Inc.; LaJolla, Calif.) for analysis. A nonparametric Kruskal-Wallis analysis of variance by ranks with post hoc […] multiple comparison test was used to determine statistical difference among dose groups. A one sample t-test compared to a theoretical mean of 1.0 fold change was used to determine difference from control for each dose group. A p-value<0.05 was used as a cutoff for statistical significance.
# Timp1 = assay: qPCR of liver RNA: Timp1; type: in vivo, Male Sprague-Dawley rats; details: across dose groups, vs control
# Description: as §1
# as §2, with “Al! primers were obtained from Integrated DNA Technology's PrimeTime qPCR primer library (Integrated DNA Technologies, Coralville, Iowa).” left out
# [1] = tested on: tissue, plasma, or serum protein abundance; assay: Global semiquantitative proteomics (iTRAQ mass spectrometry) of tissue, plasma, serum; type: in vivo, Rattus norvegicus; details: for Differentially expressed proteins: global proteomics
# From the text: Global semiquantitative proteomics analysis (iTRAQ analysis) identified protein products of a subset of the 24 genes differentially expressed in liver tissue specific for the fibrosis phenotype (Table 6). Six protein products were identified in plasma, four in the serum, and two in the liver tissue (Table 6). All protein products were identified in the contrast analysis as specific for the fibrosis phenotype. The direction of the changes in protein products matched the transcriptomics data with the exception of insulin-like growth factor binding protein complex acid labile subunit precursor. […] (Ippolito D L, et. al. Gene expression patterns associated with histopathology in toxic liver fibrosis. Tox Sci. 2015 Sep. 22. pii: kfv214)
# (§3) Serum miRNA expression was measured by next-generation sequencing. Gene expression in the liver was determined by microarray, and global serum and liver protein expression was determined by semi-quantitative mass spectrometry. […] Transcriptomic analysis identified 506 differentially expressed genes in the liver. 13 miRNAs were predicted to target 100 unique differentially expressed genes in the liver. Global proteomics analysis identified 131 differentially expressed proteins in the liver and 53 in the serum. Of these, 7 miRNAs targeted 13 unique genes coding for differentially expressed liver tissue proteins and 3 miRNAs targeted 3 unique genes coding for serum proteins. These 16 differentially expressed miRNAs in the serum are predicted to target and potentially regulate gene expression contributing to the progression of toxic liver injury. (Fermenter M G et al. Serum miRNA as prognostic indicators of toxic liver injury. Submitted abstract in October 2015 for presentation at the Society of Toxicology in March 2016 (New Orleans, La.)).
# serum miRNA = assay: Serum miRNA expression by next-generation sequencing; type: in vivo, rats; details: FDR<0.05
# Description: as §3
# liver gene expression = assay: Liver gene expression by microarray (transcriptomic analysis); type: in vivo, rats
# Description: as §3
# liver = details: 5-7 days oral administration or intraperitoneal injection, various doses; cited from earlier work
# Psma5 = assay: qPCR of liver RNA: Psma5; type: in vivo, Male Sprague-Dawley rats; details: high-dose group with vacuolation pathology; p<0.05
# Description: as §1
# as §2, with “Al! primers were obtained from Integrated DNA Technology's PrimeTime qPCR primer library (Integrated DNA Technologies, Coralville, Iowa).” left out
# [2] = Observation of plasma (lipemia) after dosing; type: in vivo, Male Sprague-Dawley rats; details: all doses
# Description: Animals were observed cageside one hour following daily dose administration, then 1-2 times per day during dosing regimens. Body weights were measured daily prior to dose administration, and prior to euthanasia. Twenty-four hours after the final dose administration, animals were anesthetized with isoflurane then euthanized by exsanguination followed by decapitation. Livers were harvested at necropsy and weighed to within 0.1 g. One half of the left lobe of the liver was fixed in 10% formalin. The remaining half of the left lobe of the liver was flash frozen in liquid nitrogen, then stored below −70° C. Liver specimens were frozen in less than three minutes from time of death.
# [3] = tested on: 67 genes on the fibrosis gene panel; details: rat, in vivo
# Description: mRNA is isolated and purified from lysed tissue biopsy specimens. The target mRNA is incubated with beads conjugated to capture probes (each probe is an oligonucleotides specific for one of the genes in the panel). The target is hybridized to the probe by a capture extender-capture probe interaction. Specific mRNA targets hybridize overnight to the respective beads. The signal is amplified by incubating mRNA-capture probe pairs by affixing an amplifier affixed to a biotinylated label probe. Streptavidin-conjugated phycoerythrin (SAPE) is bound to the biotinylated probe to amplify the signal. The signal is detected and quantified by Bioplex suspension array instrumentation, which measures the SAPE fluorescence signal proportional to the amount of mRNA transcripts captured by the bead.
# Candidate genes identified by co-expression modules and pathway/network approaches were fabricated into a custom gene panel using a commercial source (the QuantiGene 2.0 Plex assay, Affymetrix, Santa Clara, Calif.). A total of 71 genes plus 3 housekeeping genes were selected. Using 150 ng RNA input, samples were processed following manufacturer's instructions for purified RNA with use of the HandHeld Magnetic Plate Washer. Plates were read immediately following the final wash using the BioPlex 200 instrument (BioRad, Hercules, Calif.). The following parameters were set on the BioPlex instrument: sample size=100 μL; DD Gate=5,000-25,000; Timeout=45 sec; Bead Event/Bead Region=100.
# For each sample, the average signal intensity was determined as recommended by the manufacturer. Duplicates were averaged. The average background signal for each gene was subtracted. Assay limit of detection was determined by adding three standard deviations of assay background signals to the average intensity of the background control wells. All intensities lower than the limit of detection for each probe was set to one unit above the probe's limit of detection. Probes with all intensities below the assay limit of detection were removed from the final analysis. The test gene signal was divided by the average intensities of the three normalization genes (Gapdh, Hprt1, Ppib). For each test gene, the fold change was calculated by dividing the normalized value for the treated samples by the normalized value of the vehicle-treated controls. Fold changes were plotted as log2 fold change. Gene expression data were imported into Partek Genomics Suite 6.0 (Partek, Inc., St. Louis, Mo.). Principal component analysis was used for multivariate interpretation to determine sources of variation across sample groups (Joliffe I T, Morgan B J. Principal component analysis and exploratory factor analysis. Statistical methods in medical research 1992; 1(1):69-95). Differentially expressed genes were determined by analysis of variance (ANOVA) with contrasts, setting the ANOVA factors as toxicant and the histopathological endpoint of fibrosis (any score >0). ANOVA variables were fibrosis score 0 (none) vs. score of >0 (minimal, mild, moderate, and marked). For hierarchical biclustering, differentially expressed genes were standardized by setting the genes expressed to a mean of zero and scaling to a standard deviation of one. Euclidean geometry was used to cluster row and column dissimilarity using a method of average linkage.
# Chemical-dose groups were down-selected based on histopathology to conform to the 96-well assay format of the multiplexed panel of presumptive fibrosis genes. Three of the four dose groups were evaluated for the fibrogenic chemicals allyl alcohol and 4,4′-methylenedianiline. A single dose was selected with group-matched vehicle controls for each of the remaining chemicals. […] The highest dose of bromobenzene was selected because the vacuolation pathology was only observed at this dose.
# Isolated liver RNA was incubated with microbead-bound capture probes specific for the 71 presumptive fibrogenic genes and three housekeeping normalization genes.
# [4] = liver, across dose groups, vs control
# [5] = plasma, 4,4′-methylenedianiline/vehicle, Group 2
# [6] = serum, 4,4′-methylenedianiline/vehicle, Group 2
# [7] = tissue, 4,4′-methylenedianiline/vehicle, Group 2
smiles,measurement,setting,value
"Nc1ccc(Cc2ccc(N)cc2)cc1 [4,4′-methylenedianiline]",Tgfb1 gene expression by qPCR,Tgfb1; [4],showed a dose-dependent increase; also recorded: dose-dependent increases in gene expression
same,Timp1 gene expression by qPCR,Timp1,showed a dose-dependent increase; also recorded: dose-dependent increases in gene expression
same,Differentially expressed proteins,[1]; liver,131
same,Fold change alpha-2-macroglobulin precursor,[1]; [5],2.2 Fold change
same,Fold change ceruloplasmin isoform 1 precursor,[1]; [5],2.5 Fold change
same,Fold change fibronectin precursor,[1]; [5],−1.3 Fold change
same,Fold change insulin-like growth factor-binding protein complex acid labile subunit precursor,[1]; [5],−1.4 Fold change
same,Fold change vitronectin precursor,[1]; [5],−1.6 Fold change
same,Differentially expressed proteins,[1]; serum,53
same,Fold change alpha-2-macroglobulin precursor,[1]; [6],2.4 Fold change
same,Fold change ceruloplasmin isoform 1 precursor,[1]; [6],2.4 Fold change
same,Fold change complement C1q subcomponent subunit B precursor,[1]; [6],1.6 Fold change
same,Fold change vitronectin precursor,[1]; [6],−1.1 Fold change
same,Fold change ceruloplasmin isoform 1 precursor,[1]; [7],3.0 Fold change
same,Fold change fibronectin precursor,[1]; [7],1.4 Fold change
same,Differentially expressed miRNA,serum miRNA,16
same,Downregulated miRNA,serum miRNA,4
same,Upregulated miRNA,serum miRNA,12
same,Differentially expressed genes,liver gene expression,506
same,Fibrosis score in the DrugMatrix study,liver,scored fibrosis-positive
Brc1ccccc1 [bromobenzene],Tgfb1 gene expression by qPCR,Tgfb1; [4],"not significantly affected at any dose; also recorded: slight, statistically insignificant increase"
same,Psma5 expression,Psma5,2.2±0.8 fold vehicle control
ClC(Cl)(Cl)Cl [carbon tetrachloride],Tgfb1 gene expression by qPCR,Tgfb1; [4],insignificant
same,Tgfb1 gene expression by qPCR,"Tgfb1; liver, across dose groups, vs control, listed as Carbon tetrachloride",not significantly upregulated at any dose
C[C@@H]1C[C@H]2[C@@H]3CCC4=CC(=O)C=C[C@]4(C)[C@@]3(F)[C@@H](O)C[C@]2(C)[C@@]1(O)C(=O)CO [dexamethasone],Tgfb1 gene expression by qPCR,Tgfb1; 44.8 mg/kg,the difference was not statistically significant
same,Tgfb1 gene expression by qPCR,"Tgfb1; 1, 6.7, or 300 mg/kg",significantly downregulated
same,Tgfb1 gene expression by qPCR,Tgfb1; [4],decreased gene expression
same,Lipemia (plasma appearance),[2],resulted in lipemia (milky white plasma)
same,Panel genes downregulated (and upregulated in fibrogenic chemical-dose groups),[3],12 genes
same,Pcolce expression levels compared with fibrogenic compounds,[3],"anti-correlated with corresponding gene expression levels induced by 4,4′-methylenedianiline and allyl alcohol"
